Results from ChEMBL document CHEMBL3797178, “Synthesis, antimycobacterial and antibacterial activity of 1-(6-amino-3,5-difluoropyridin-2-yl)fluoroquinolone derivatives containing an oxime functional moiety” (2016).
Converted amounts (≈) assume the structure as drawn.

Columns and labels:
Assay type in all cases: functional
[1] = tested on: Klebsiella pneumoniae; assay: Antibacterial activity against Klebsiella pneumoniae 14-4 after 18 to 24 hrs by CLSI M100-S11 method
[2] = tested on: Escherichia coli; assay: Antibacterial activity against extended-spectrum beta-lactamase-producing Escherichia coli 14-2 after 18 to 24 hrs by CLSI M100-S11 method
[3] = tested on: Pseudomonas aeruginosa; assay: Antibacterial activity against Pseudomonas aeruginosa 14-16 after 18 to 24 hrs by CLSI M100-S11 method
[4] = tested on: Pseudomonas aeruginosa; assay: Antibacterial activity against Pseudomonas aeruginosa 14-15 after 18 to 24 hrs by CLSI M100-S11 method
[5] = tested on: Enterococcus faecium; assay: Antibacterial activity against Enterococcus faecium 14-1 after 18 to 24 hrs by CLSI M100-S11 method
[6] = tested on: Staphylococcus aureus; assay: Antibacterial activity against methicillin-resistant Staphylococcus aureus 14-5 after 18 to 24 hrs by CLSI M100-S11 method
[7] = tested on: Staphylococcus epidermidis; assay: Antibacterial activity against methicillin-resistant Staphylococcus epidermidis 14-39 after 18 to 24 hrs by CLSI M100-S11 method
[8] = tested on: Enterococcus faecalis; assay: Antibacterial activity against Enterococcus faecalis 14-2 after 18 to 24 hrs by CLSI M100-S11 method
[9] = tested on: Pseudomonas aeruginosa; assay: Antibacterial activity against Pseudomonas aeruginosa 14-9 after 18 to 24 hrs by CLSI M100-S11 method
[10] = tested on: Enterococcus faecalis; assay: Antibacterial activity against Enterococcus faecalis 14-1 after 18 to 24 hrs by CLSI M100-S11 method
[11] = tested on: Staphylococcus aureus; assay: Antibacterial activity against methicillin-sensitive Staphylococcus aureus 14-3 after 18 to 24 hrs by CLSI M100-S11 method
[12] = tested on: Enterococcus faecium; assay: Antibacterial activity against Enterococcus faecium 14-2 after 18 to 24 hrs by CLSI M100-S11 method
[13] = tested on: Escherichia coli; assay: Antibacterial activity against Escherichia coli 14-2 after 18 to 24 hrs by CLSI M100-S11 method
[14] = tested on: Enterococcus faecalis; assay: Antibacterial activity against Enterococcus faecalis 14-3 after 18 to 24 hrs by CLSI M100-S11 method
[15] = tested on: Streptococcus pneumoniae; assay: Antibacterial activity against Streptococcus pneumoniae ATCC 19615 after 18 to 24 hrs by CLSI M100-S11 method
[16] = tested on: Klebsiella pneumoniae; assay: Antibacterial activity against Klebsiella pneumoniae 14-1 after 18 to 24 hrs by CLSI M100-S11 method
[17] = tested on: Mycobacterium tuberculosis; assay: Antimycobacterial activity against Mycobacterium tuberculosis H37Rv ATCC 27294 after 3 days by microplate Alamar Blue assay; conditions: H37Rv ATCC 27294, 72 h
[18] = tested on: Staphylococcus aureus; assay: Antibacterial activity against methicillin-sensitive Staphylococcus aureus 14-2 after 18 to 24 hrs by CLSI M100-S11 method
[19] = tested on: Staphylococcus aureus; assay: Antibacterial activity against methicillin-resistant Staphylococcus aureus 14-4 after 18 to 24 hrs by CLSI M100-S11 method
[20] = tested on: Klebsiella pneumoniae; assay: Antibacterial activity against Klebsiella pneumoniae 14-2 after 18 to 24 hrs by CLSI M100-S11 method
[21] = tested on: Staphylococcus epidermidis; assay: Antibacterial activity against methicillin-sensitive Staphylococcus epidermidis 14-6 after 18 to 24 hrs by CLSI M100-S11 method
[22] = tested on: Pseudomonas aeruginosa; assay: Antibacterial activity against Pseudomonas aeruginosa ATCC 27853 after 18 to 24 hrs by CLSI M100-S11 method
[23] = tested on: Pseudomonas aeruginosa; assay: Antibacterial activity against Pseudomonas aeruginosa 14-14 after 18 to 24 hrs by CLSI M100-S11 method
[24] = tested on: Staphylococcus aureus; assay: Antibacterial activity against methicillin-sensitive Staphylococcus aureus 14-4 after 18 to 24 hrs by CLSI M100-S11 method
[25] = tested on: Pseudomonas aeruginosa; assay: Antibacterial activity against Pseudomonas aeruginosa 14-19 after 18 to 24 hrs by CLSI M100-S11 method
[26] = tested on: Klebsiella pneumoniae; assay: Antibacterial activity against extended-spectrum beta-lactamase-producing Klebsiella pneumoniae 14-18 after 18 to 24 hrs by CLSI M100-S11 method
[27] = tested on: Staphylococcus aureus; assay: Antibacterial activity against Staphylococcus aureus CMCC 26003 after 18 to 24 hrs by CLSI M100-S11 method
[28] = tested on: Escherichia coli; assay: Antibacterial activity against extended-spectrum beta-lactamase-producing Escherichia coli 14-1 after 18 to 24 hrs by CLSI M100-S11 method
[29] = tested on: Staphylococcus epidermidis; assay: Antibacterial activity against methicillin-resistant Staphylococcus epidermidis 14-22 after 18 to 24 hrs by CLSI M100-S11 method
[30] = tested on: Klebsiella pneumoniae; assay: Antibacterial activity against Klebsiella pneumoniae 14-3 after 18 to 24 hrs by CLSI M100-S11 method
[31] = tested on: Klebsiella pneumoniae; assay: Antibacterial activity against extended-spectrum beta-lactamase-producing Klebsiella pneumoniae 14-17 after 18 to 24 hrs by CLSI M100-S11 method
[32] = tested on: Staphylococcus epidermidis; assay: Antibacterial activity against methicillin-sensitive Staphylococcus epidermidis 14-2 after 18 to 24 hrs by CLSI M100-S11 method
[33] = tested on: Escherichia coli; assay: Antibacterial activity against Escherichia coli ATCC 25922 after 18 to 24 hrs by CLSI M100-S11 method
[34] = tested on: Staphylococcus epidermidis; assay: Antibacterial activity against methicillin-resistant Staphylococcus epidermidis 14-37 after 18 to 24 hrs by CLSI M100-S11 method
[35] = tested on: Staphylococcus epidermidis; assay: Antibacterial activity against methicillin-sensitive Staphylococcus epidermidis 14-4 after 18 to 24 hrs by CLSI M100-S11 method
[36] = tested on: Klebsiella pneumoniae; assay: Antibacterial activity against extended-spectrum beta-lactamase-producing Klebsiella pneumoniae 14-19 after 18 to 24 hrs by CLSI M100-S11 method
[37] = tested on: Escherichia coli; assay: Antibacterial activity against Escherichia coli 14-1 after 18 to 24 hrs by CLSI M100-S11 method

SMILES | MIC [1] [µg/mL] | MIC [2] [µg/mL] | MIC [3] [µg/mL] | MIC [4] [µg/mL] | MIC [5] [µg/mL] | MIC [6] [µg/mL] | MIC [7] [µg/mL] | MIC [8] [µg/mL] | MIC [9] [µg/mL] | MIC [10] [µg/mL] | MIC [11] [µg/mL] | MIC [12] [µg/mL] | MIC [13] [µg/mL] | MIC [14] [µg/mL] | MIC [15] [µg/mL] | MIC [16] [µg/mL] | MIC [17] [µg/mL] | MIC [18] [µg/mL] | MIC [19] [µg/mL] | MIC [20] [µg/mL] | other results
NC[C@@H]1/C(=N/OCc2ccccc2)CN1c1nc2c(cc1F)c(=O)c(C(=O)O)cn2-c1nc(N)c(F)cc1F | > 128 | > 128 | 128 (≈ 237 µM) | 128 (≈ 237 µM) | > 128 | > 128 | > 133 | > 128 | 128 (≈ 237 µM) | > 128 | 8 (≈ 14.8 µM) | 32 (≈ 59.3 µM) | > 128 | > 128 | 64 (≈ 119 µM) | > 128 | > 32 | 4 (≈ 7.41 µM) | > 128 | > 128 | MIC [21]: > 128 µg/mL; MIC [22]: 128 µg/mL (≈ 237 µM); MIC [23]: 128 µg/mL (≈ 237 µM); MIC [24]: 4 µg/mL (≈ 7.41 µM); MIC [25]: 128 µg/mL (≈ 237 µM); MIC [26]: 128 µg/mL (≈ 237 µM); MIC [27]: 4 µg/mL (≈ 7.41 µM); MIC [28]: 128 µg/mL (≈ 237 µM); MIC [29]: > 128 µg/mL; MIC [30]: > 128 µg/mL; MIC [31]: > 128 µg/mL; MIC [32]: > 128 µg/mL; MIC [33]: 8 µg/mL (≈ 14.8 µM); MIC [34]: > 128 µg/mL; MIC [35]: > 128 µg/mL; MIC [36]: > 128 µg/mL; MIC [37]: > 128 µg/mL
CCO/N=C1\CN(c2nc3c(cc2F)c(=O)c(C(=O)O)cn3-c2nc(N)c(F)cc2F)[C@@H]1CN | > 128 | > 128 | 128 (≈ 268 µM) | 128 (≈ 268 µM) | > 128 | > 128 | > 132 | > 128 | 128 (≈ 268 µM) | > 128 | 32 (≈ 67 µM) | 128 (≈ 268 µM) | > 128 | > 128 | 64 (≈ 134 µM) | > 128 | > 32 | 32 (≈ 67 µM) | > 128 | > 128 | MIC [21]: > 128 µg/mL; MIC [22]: 128 µg/mL (≈ 268 µM); MIC [23]: 128 µg/mL (≈ 268 µM); MIC [24]: 32 µg/mL (≈ 67 µM); MIC [25]: 128 µg/mL (≈ 268 µM); MIC [26]: > 128 µg/mL; MIC [27]: 16 µg/mL (≈ 33.5 µM); MIC [28]: > 128 µg/mL; MIC [29]: > 128 µg/mL; MIC [30]: > 128 µg/mL; MIC [31]: > 128 µg/mL; MIC [32]: > 128 µg/mL; MIC [33]: 16 µg/mL (≈ 33.5 µM); MIC [34]: > 128 µg/mL; MIC [35]: > 128 µg/mL; MIC [36]: > 128 µg/mL; MIC [37]: > 128 µg/mL
CO/N=C1\CN(c2c(F)cc3c(=O)c(C(=O)O)cn(-c4nc(N)c(F)cc4F)c3c2Cl)CC1CN (stereo not drawn) | 128 (≈ 251 µM) | 64 (≈ 125 µM) | 8 (≈ 15.7 µM) | 8 (≈ 15.7 µM) | > 128 | 128 (≈ 251 µM) | 32 (≈ 62.6 µM) | 64 (≈ 125 µM) | 8 (≈ 15.7 µM) | 16 (≈ 31.3 µM) | 0.125 (≈ 0.245 µM) | 8 (≈ 15.7 µM) | 64 (≈ 125 µM) | 32 (≈ 62.6 µM) | 16 (≈ 31.3 µM) | 64 (≈ 125 µM) | 30.5 (≈ 59.7 µM) | 0.06 (≈ 0.117 µM) | 128 (≈ 251 µM) | > 128 | MIC [21]: 64 µg/mL (≈ 125 µM); MIC [22]: 4 µg/mL (≈ 7.83 µM); MIC [23]: 8 µg/mL (≈ 15.7 µM); MIC [24]: 0.25 µg/mL (≈ 0.489 µM); MIC [25]: 8 µg/mL (≈ 15.7 µM); MIC [26]: 16 µg/mL (≈ 31.3 µM); MIC [27]: 0.03 µg/mL (≈ 0.0587 µM); MIC [28]: 2 µg/mL (≈ 3.91 µM); MIC [29]: 64 µg/mL (≈ 125 µM); MIC [30]: 128 µg/mL (≈ 251 µM); MIC [31]: 32 µg/mL (≈ 62.6 µM); MIC [32]: 64 µg/mL (≈ 125 µM); MIC [33]: 0.125 µg/mL (≈ 0.245 µM); MIC [34]: 64 µg/mL (≈ 125 µM); MIC [35]: 32 µg/mL (≈ 62.6 µM); MIC [36]: 128 µg/mL (≈ 251 µM); MIC [37]: 64 µg/mL (≈ 125 µM)
CO/N=C1\CCN(c2c(F)cc3c(=O)c(C(=O)O)cn(-c4nc(N)c(F)cc4F)c3c2Cl)CC1N (stereo not drawn) | > 128 | > 128 | 128 (≈ 251 µM) | 64 (≈ 125 µM) | > 128 | > 128 | > 128 | > 128 | 64 (≈ 125 µM) | > 128 | 0.25 (≈ 0.489 µM) | 16 (≈ 31.3 µM) | > 128 | > 128 | 64 (≈ 125 µM) | > 128 | > 32 | 0.5 (≈ 0.979 µM) | > 128 | > 128 | MIC [21]: 128 µg/mL (≈ 251 µM); MIC [22]: 16 µg/mL (≈ 31.3 µM); MIC [23]: 64 µg/mL (≈ 125 µM); MIC [24]: 0.5 µg/mL (≈ 0.979 µM); MIC [25]: 128 µg/mL (≈ 251 µM); MIC [26]: 128 µg/mL (≈ 251 µM); MIC [27]: 0.5 µg/mL (≈ 0.979 µM); MIC [28]: 64 µg/mL (≈ 125 µM); MIC [29]: > 128 µg/mL; MIC [30]: > 128 µg/mL; MIC [31]: > 128 µg/mL; MIC [32]: > 128 µg/mL; MIC [33]: 1 µg/mL (≈ 1.96 µM); MIC [34]: > 128 µg/mL; MIC [35]: 128 µg/mL (≈ 251 µM); MIC [36]: > 128 µg/mL; MIC [37]: > 128 µg/mL
